Each structure is given as a SMILES string. Active and inactive are the calls of the source. How the calls were made is not given here.

Usually Kd stands for the constant that tells how readily two partners part at equilibrium.

Glycogen synthase kinase-3 beta (Homo sapiens), sequence (P49841 whole entry, looked up): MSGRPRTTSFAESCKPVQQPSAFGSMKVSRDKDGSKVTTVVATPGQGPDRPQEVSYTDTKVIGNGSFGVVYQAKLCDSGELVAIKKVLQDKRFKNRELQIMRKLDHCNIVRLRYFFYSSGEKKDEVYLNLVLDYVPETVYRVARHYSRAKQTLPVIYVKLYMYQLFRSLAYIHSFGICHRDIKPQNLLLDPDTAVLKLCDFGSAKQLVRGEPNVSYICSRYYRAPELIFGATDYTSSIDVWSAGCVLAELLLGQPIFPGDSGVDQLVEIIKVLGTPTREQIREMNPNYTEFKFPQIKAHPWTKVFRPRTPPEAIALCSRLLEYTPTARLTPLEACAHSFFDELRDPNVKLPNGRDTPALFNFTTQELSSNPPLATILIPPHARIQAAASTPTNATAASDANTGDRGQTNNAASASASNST

The assay addresses Glycogen synthase kinase-3 beta (Homo sapiens) (UniProt P49841). The assay can be described thus: GSK3beta direct binders, dose response, biophysical, surface plasmon resonance, microfluidics, dry powder samples (AID 624108). The note with it: recombinant GSK3beta, surface plasmon resonance binding.
Consider `COc1ccccc1[C@H]1C2=C(CC(C)(C)CC2=O)Nc2n[nH]c(C(F)(F)F)c21`, for which the Kd result is “inactive”. In the case of `Cc1[nH]nc2c1C(c1cccc(Cl)c1)C1=C(CC(C)(C)CC1=O)N2` (configuration not stated), the equilibrium dissociation constant (Kd) was 360 nM.

For `CC1(C)CC(=O)C2=C(C1)Nc1n[nH]c(C(F)(F)F)c1C2c1ccccc1F` (configuration not stated), the Kd was > 5000 nM (inactive). `COc1ccccc1C1C2=C(CC(C)(C)CC2=O)Nc2ccccc21` (configuration not stated): the Kd is > 5000 nM (inactive). In the case of `Cc1[nH]nc2nc3c(c(-c4ccccc4)c12)C(=O)CC(C)(C)C3`, the dissociation constant (Kd) is 13 nM. With `Cc1[nH]nc2c1C(c1ccccc1Cl)C1=C(CC(C)(C)CC1=O)N2` (configuration not stated), the Kd was 890 nM. Next, `Cc1ccccc1C1C2=C(CC(C)(C)CC2=O)Nc2n[nH]c(C)c21` (configuration not stated): 223 nM; `CC1(C)CC(=O)/C(=C\c2cccc(F)c2C(F)(F)F)C(=Nc2cc(C(F)(F)F)[nH]n2)C1`: 40 nM; `CC1(C)CC(=O)C2=C(C1)Nc1n[nH]c(C(F)(F)F)c1C2c1ccc(F)cc1C(F)(F)F` (configuration not stated): 202 nM. In the case of `COc1ccccc1C1C2=C(CC(C)(C)CC2=O)Nc2n[nH]c(C(F)(F)F)c21` (configuration not stated), the Kd was 102 nM.

Turning to `Cc1[nH]nc2nc3c(cc12)C(=O)CC(C)(C)C3`, the Kd is > 5000 nM (inactive).

As for `COc1ccccc1C1C2=C(CC(C)(C)CC2=O)Nc2n[nH]c(-c3ccccc3)c21` (configuration not stated), the Kd entry is “inactive”. On to `COc1ccccc1C1C(C(C)=O)=C(C)Nc2n[nH]c(C)c21` (configuration not stated), for which the Kd was > 5000 nM (inactive). As for `CC1(C)CC(=O)C2=C(C1)Nc1n[nH]c(C(F)(F)F)c1C2c1cc(F)ccc1OC(F)(F)F` (configuration not stated), the Kd was 627 nM. Take `Cc1[nH]nc2c1C(c1ccc(Cl)s1)C1=C(CC(C)(C)CC1=O)N2` (configuration not stated): the Kd was 520 nM. For `Cc1[nH]nc2c1[C@@H](c1ccccc1C(F)(F)F)C1=C(CC(C)(C)CC1=O)N2`, the Kd is > 5000 nM (inactive). As to `Cc1[nH]nc2c1C(C1CCCCC1)C1=C(CC(C)(C)CC1=O)N2` (configuration not stated), the Kd is > 5000 nM (inactive). As for `Cc1[nH]nc2c1C(c1ccc3c(c1)OCO3)C1=C(CC(C)(C)CC1=O)N2` (configuration not stated), the Kd result is “inactive”. Take `Cc1[nH]nc2c1C(c1ccn[nH]1)C1=C(CC(C)(C)CC1=O)N2` (configuration not stated): the Kd was > 5000 nM (inactive). Take `COc1ccccc1C1C2=C(CCCC2=O)Nc2n[nH]c(C)c21` (configuration not stated): the Kd is > 5000 nM (inactive). Consider `CC1(C)CC(=O)C2=C(C1)Nc1n[nH]c(C(F)(F)F)c1C2c1ccccc1` (configuration not stated), for which the dissociation constant (Kd) is 113 nM. For `Cc1[nH]nc2c1C(c1ccc(Cl)cc1)C1=C(CC(C)(C)CC1=O)N2` (configuration not stated), the Kd entry was “inactive”. Take `Cc1[nH]nc2c1C(c1ccc(C(F)(F)F)cc1)C1=C(CC(C)(C)CC1=O)N2` (configuration not stated): the dissociation constant Kd is 368 nM. As for `Cc1[nH]nc2c1C(c1ccc(C#N)cc1)C1=C(CC(C)(C)CC1=O)N2` (configuration not stated), the Kd result is “inactive”.

`COc1ccccc1-c1c2c(nc3n[nH]c(C)c13)CCC2=O`: the Kd was > 5000 nM (inactive). In the case of `Cc1[nH]nc2c1C(c1ccc(F)cc1)C1=C(CC(C)(C)CC1=O)N2` (configuration not stated) it was “inactive”; in that of `Cc1[nH]nc2c1C(c1cccc(C#N)c1)C1=C(CC(C)(C)CC1=O)N2` (configuration not stated), 331 nM. Turning to `COc1ccc(C2C3=C(CC(C)(C)CC3=O)Nc3n[nH]c(C)c32)cc1` (configuration not stated), the Kd entry is “inactive”. Next, `Cc1[nH]nc2c1C(c1ccccc1C(F)(F)F)C1=C(CC(C)(C)CC1=O)N2` (configuration not stated): 49 nM; `Cc1[nH]nc2c1C(c1cccs1)C1C(=O)CC(C)(C)CC1=N2` (configuration not stated): 420 nM; `Cc1[nH]nc2c1C(c1ccccc1C#N)C1=C(CC(C)(C)CC1=O)N2` (configuration not stated): > 5000 nM (inactive). In the case of `COc1cccc(C2C3=C(CC(C)(C)CC3=O)Nc3n[nH]c(C)c32)c1` (configuration not stated) it was > 5000 nM (inactive); in that of `CCc1[nH]nc2c1C(c1ccccc1OC)C1=C(CC(C)(C)CC1=O)N2` (configuration not stated), > 5000 nM (inactive). Next, `COc1ccccc1C1C2=C(CC3(CCCCC3)CC2=O)Nc2n[nH]c(C)c21` (configuration not stated): > 5000 nM (inactive); `CC1(C)CC(=O)C2=C(C1)Nc1n[nH]c(C(F)(F)F)c1C2(C)c1ccccc1` (configuration not stated): > 5000 nM (inactive); `Cc1[nH]nc2c1C(c1ccsc1)C1=C(CC(C)(C)CC1=O)N2` (configuration not stated): 450 nM. On to `COc1ccccc1C1C2=C(CC(C)(C)CC2=O)Nc2n[nH]c(C(C)(C)C)c21` (configuration not stated), for which the equilibrium dissociation constant (Kd) is 585 nM. Take `Cc1[nH]nc2c1C(c1cccc(C(F)(F)F)c1)C1=C(CC(C)(C)CC1=O)N2` (configuration not stated): the Kd result was “inactive”.

On to `Cc1ccc(C2C3=C(CC(C)(C)CC3=O)Nc3n[nH]c(C)c32)cc1` (configuration not stated), for which the Kd entry is “inactive”. On to `CC1(C)CC(=O)C2=C(C1)Nc1n[nH]c(C(F)(F)F)c1C2c1c(F)cccc1F` (configuration not stated), for which the Kd is > 5000 nM (inactive).

As to `Cc1[nH]nc2c1C(c1ccccn1)C1=C(CC(C)(C)CC1=O)N2` (configuration not stated), the Kd is 390 nM. `COc1ccccc1[C@@H]1C2=C(CC(C)(C)CC2=O)Nc2n[nH]c(C(F)(F)F)c21`: the Kd is 31 nM.

With `COc1ccccc1C1C2=C(CC(C)(C)CC2=O)Nc2n[nH]c(C(C)C)c21` (configuration not stated), the Kd result was “inactive”. As to `Cc1cccc(C2C3=C(CC(C)(C)CC3=O)Nc3n[nH]c(C)c32)c1` (configuration not stated), the Kd is 802 nM.

As to `CC1(C)CC(=O)C2=C(C1)Nc1n[nH]c(C(F)(F)F)c1C2c1cccc(F)c1C(F)(F)F` (configuration not stated), the Kd is 822 nM. In the case of `COc1ccccc1/C=C1\C(=O)CC(C)(C)CC1=Nc1cc(C(F)(F)F)[nH]n1` it was > 5000 nM (inactive); in that of `Cc1[nH]nc2nc3c(c(-c4cccs4)c12)C(=O)CC(C)(C)C3`, 24 nM. In the case of `Cc1[nH]nc2c1C(c1ccccc1Br)C1=C(CC(C)(C)CC1=O)N2` (configuration not stated), the dissociation constant Kd is 40 nM. With `COc1ccccc1C1C2=C(CC(C)(C)CC2=O)Nc2[nH]ncc21` (configuration not stated), the Kd is 173 nM.

Consider `Cc1[nH]nc2c1[C@H](c1cccs1)C1=C(CC(C)(C)CC1=O)N2`, for which the Kd is 421 nM. For `CC1(C)CC(=O)C2=C(C1)Nc1n[nH]c(C(F)(F)F)c1C2c1cc(F)ccc1C(F)(F)F` (configuration not stated), the Kd was 150 nM. Turning to `Cc1[nH]nc2c1[C@H](c1ccccc1C(F)(F)F)C1=C(CC(C)(C)CC1=O)N2`, the dissociation constant Kd was 15 nM. In the case of `Cc1[nH]nc2c1C(C)C1=C(CC(C)(C)CC1=O)N2` (configuration not stated) it was > 5000 nM (inactive); in that of `Cc1[nH]nc2c1C(c1ccc(F)cc1Cl)C1=C(CC(C)(C)CC1=O)N2` (configuration not stated), > 5000 nM (inactive). Consider `COc1ccccc1C1C2=C(CCC(C)(C)C2=O)Nc2n[nH]c(C)c21` (configuration not stated), for which the Kd was 305 nM.

For `Cc1[nH]nc2c1C(c1ccc(Br)cn1)C1=C(CC(C)(C)CC1=O)N2` (configuration not stated), the Kd is > 5000 nM (inactive). Regarding `Cc1[nH]nc2c1C(c1cccc(F)c1)C1=C(CC(C)(C)CC1=O)N2` (configuration not stated), the Kd result is “inactive”. As for `COc1ccccc1C1C2=C(CC(C)(C)CC2=O)Nc2onc(C)c21` (configuration not stated), the Kd is > 5000 nM (inactive).

For the molecule `Cc1[nH]nc2c1C(C1CC1)C1=C(CC(C)(C)CC1=O)N2` (configuration not stated), the Kd was > 5000 nM (inactive). For `CC1(C)CC(=O)/C(=C\c2ccccc2C(F)(F)F)C(=Nc2cc(C(F)(F)F)[nH]n2)C1`, the Kd is > 5000 nM (inactive). On to `Cc1[nH]nc2c1[C@@H](c1cccs1)C1=C(CC(C)(C)CC1=O)N2`, for which the Kd was > 5000 nM (inactive).

`COc1ccccc1C1C2=C(CC(C)(C)CC2=O)Nc2n[nH]c(C)c21` (configuration not stated): the dissociation constant (Kd) is 60 nM. Next, `Cc1[nH]nc2c1C(c1cccnc1)C1=C(CC(C)(C)CC1=O)N2` (configuration not stated): 270 nM; `Cc1[nH]nc2c1C(c1cccc3nonc13)C1=C(CC(C)(C)CC1=O)N2` (configuration not stated): > 5000 nM (inactive); `CC1(C)CC(=O)C2=C(C1)Nc1n[nH]c(C(F)(F)F)c1C2c1ccccc1C(F)(F)F` (configuration not stated): 122 nM.

Take `Cc1[nH]nc2c1C(C)(c1ccccc1)C1=C(CC(C)(C)CC1=O)N2` (configuration not stated): the dissociation constant Kd is 149 nM. For `CC1(C)CC(=O)C2=C(C1)Nc1n[nH]c(C(F)(F)F)c1C2c1cc(F)ccc1F` (configuration not stated), the Kd was 424 nM.
